In patent publication US9802899B2, “Heterocyclic compounds as pesticides” (BAYER CROPSCIENCE AG, priority 2012, dated 2017):

assay: Determination of the log P values by HPLC (formic acid method); assay type: physicochemical; conditions: reversed-phase HPLC column (C 18), reversed-phase column (C 18), acidic range (pH 3.4), 55° C.
Method: 1) Description of Method for Determination of the Log P Values (Formic Acid Method)
Eluents for determination in the acidic range (pH 3.4):
Eluent A: acetonitrile+1 ml of formic acid/liter. Eluent B: water+0.9 ml of formic acid/liter.
The lambda max values were determined in the maxima of the chromatographic signals using the UV spectra from 200 nm to 400 nm.

Structure (SMILES) | chromatographic logP
Nc1nn(-c2ncc(F)cc2F)c2ccc(F)cc12 [1-(3,5-Difluoropyridin-2-yl)-5-fluoro-1H-indazole-3-amine] | 2.09
Nc1nn(-c2ccccc2Cl)cc1I [4-Iodo-1-(2-chlorophenyl)-1H-pyrazole-3-amine] | 2.36
CCOc1cccc(Cl)c1-n1ccc(N)n1 [1-(2-Chloro-6-ethoxyphenyl)-1H-pyrazole-3-amine] | 2.13
Nc1ccn(-c2cccnc2Cl)n1 [1-(2-Chloropyridin-3-yl)-1H-pyrazole-3-amine] | 0.62
Nc1cnn(-c2ccc(C(F)(F)F)cn2)n1 [2-[5-(Trifluoromethyl)pyridin-2-yl]-2H-1,2,3-triazole-4-amine] | 1.53
Nc1ccn(-c2nc(F)c(F)cc2F)n1 [1-(3,5,6-Trifluoropyridin-2-yl)-1H-pyrazole-3-amine] | 1.15

Next, values leading:

chromatographic logP | Structure (SMILES)
1.33 | O=C(Nc1cc[nH]n1)c1ccccc1C(F)(F)F [N-(1H-Pyrazol-3-yl)-2-(trifluoromethyl)benzamide]
3.4 | O=C(Nc1ccn(-c2nccc(-c3ccc(F)cc3)c2F)n1)c1ccccc1C(F)(F)F [Compound I-1-640, N-{1-[3-Fluoro-4-(4-fluorophenyl)pyridin-2-yl]-1H-pyrazol-3-yl}-2-(trifluoromethyl)benzamide]

same assay, conditions: reversed-phase column (C 18), acidic range (pH 3.4), 55° C.

Structure (SMILES) | log P
Cc1cc(C)c(C#N)c(-n2ccc(NC(=O)c3ccccc3C(F)(F)F)n2)n1 [Compound I-1-567] | 3.15
Cn1cccc1C(=O)Nc1ccn(-c2ncc(F)cc2F)n1 [Compound I-1-647] | 2.16
O=C(Nc1ccn(-c2c(F)cccc2F)n1)c1cccc(F)c1C(F)(F)F [Compound I-1-287] | 2.76
O=C(Nc1ccn(-c2ncccc2Br)n1)c1ccccc1C(F)(F)F [Compound I-1-549] | 2.42
O=C(Nc1ccn(-c2ncc(F)cc2F)n1)c1cccnc1Br [Compound I-1-482] | 1.77
O=C(Nc1ccn(-c2ncc(Cl)cc2Cl)n1)c1ccc(F)cc1C(F)(F)F [Compound I-1-436] | 2.61
Cc1noc(C(F)F)c1C(=O)Nc1ccn(-c2c(F)cccc2F)n1 [Compound I-1-106] | 2.53
Cc1nn(C)c(C(=O)Nc2ccn(-c3c(F)cccc3F)n2)c1F [Compound I-1-320] | 2.20
N#Cc1cn(-c2ccccc2Cl)nc1NC(=O)c1ccccc1I [Compound I-1-368] | 2.51
Cn1nc(C(F)(F)C(F)(F)F)c(C(F)(F)F)c1C(=O)Nc1ccn(-c2c(F)cccc2F)n1 [Compound I-1-237] | 3.84
Cn1nc(C(C)(C)C)c([N+](=O)[O-])c1C(=O)Nc1ccn(-c2c(F)cccc2F)n1 [Compound I-1-292] | 3.33
Cc1nc(-n2ccc(NC(=O)c3c(F)cccc3F)n2)c(F)cc1F [Compound I-1-441] | 2.56
Cc1cn(-c2ccccc2Cl)nc1NC(=O)c1c(F)cccc1F [Compound I-1-352] | 2.70
Cc1cc(NC(=O)c2ccccc2C(F)(F)F)nn1-c1ccc(F)cc1F [Compound I-1-202] | 3.78
Cn1nc(C(F)(F)C(F)(F)F)c(C(F)(F)F)c1C(=O)Nc1ccn(-c2ncc(F)cc2F)n1 [Compound I-1-450] | 3.65
CCc1nnccc1C(=O)Nc1ccn(-c2c(F)cccc2F)n1 [Compound I-1-98] | 1.73
Cn1cncc1C(=O)Nc1ccn(-c2c(F)cccc2F)n1 [Compound I-1-644] | 0.99
O=C(Nc1ccn(-c2c(F)cccc2F)n1)c1ccncc1C(F)(F)F [Compound I-1-97] | 2.16
O=C(c1ccccc1I)N(C(=O)c1ccccc1I)c1nn(-c2ccccc2Br)nc1Cl [Compound I-2-34] | 5.06
CS(=O)(=O)c1ccccc1-n1ccc(NC(=O)c2c(F)cccc2F)n1 [Compound I-1-181] | 1.86
O=C(Nc1ccn(-c2ncc(F)cc2F)n1)c1c(Cl)cccc1Cl [Compound I-1-479] | 2.51
O=C(Nc1ccn(-c2ccccn2)n1)c1ccccc1Br [Compound I-1-127] | 2.36
CS(=O)(=O)c1ccccc1C(=O)Nc1ccn(-c2ncc(F)cc2F)n1 [Compound I-1-462] | 1.69
O=C(Nc1ccn(-c2ccccc2Br)n1)c1cccnc1C(F)(F)F [Compound I-1-56] | 2.54

Structure (SMILES) | log P
Cc1oc(C)c(C(=O)Nc2ccn(-c3c(F)cccc3F)n2)c1Br [Compound I-1-304] | 3.38
O=C(Nc1ccn(-c2cc(F)c(F)cc2F)n1)c1ccccc1Br [Compound I-1-194] | 3.99
O=C(Nc1ccn(-c2ccccc2Cl)n1)c1cccnc1F [Compound I-1-364] | 2.38
O=C(Nc1ccn(-c2ccccc2Cl)n1)c1ncccc1Cl [Compound I-1-40] | 2.79
O=C(Nc1ccn(-c2ncccc2F)n1)c1c(F)cccc1C(F)(F)F [Compound I-1-580] | 2.36
N#Cc1cc(F)ccc1-n1ccc(NC(=O)c2c(F)cccc2C(F)(F)F)n1 [Compound I-1-632] | 2.64
O=C(Nc1nn(-c2cc(F)cnc2F)c2ccc(F)cc12)c1ccccc1C(F)(F)F [Compound I-5-7] | 3.39
CC(=O)N(C(=O)c1ccccc1C(F)(F)F)c1ccn(-c2ncc(F)cc2F)n1 [Compound I-1-142] | 2.97
Cn1ccc([N+](=O)[O-])c1C(=O)Nc1ccn(-c2c(F)cccc2F)n1 [Compound I-1-239] | 2.50
O=C(Nc1cnn(-c2ncc(F)cc2F)n1)c1sccc1C(F)(F)F [Compound I-2-85] | 2.50
Cn1nc(C(F)(F)C(F)(F)F)c(C#N)c1C(=O)Nc1ccn(-c2c(F)cccc2F)n1 [Compound I-1-317] | 3.37
O=C(Nc1cnn(-c2ccccc2Br)n1)c1ccccc1I [Compound I-2-33] | 3.06
CCc1ccccc1C(=O)Nc1ccn(-c2ccccc2Cl)n1 [Compound I-1-12] | 3.30
CC1=C(C(=O)Nc2ccn(-c3ncc(F)cc3F)n2)OCCO1 [Compound I-1-639] | 2.16
Cc1cc(NC(=O)c2ccccc2OC(F)(F)F)nn1-c1ccccc1Cl [Compound I-1-343] | 2.87
Cc1cccnc1C(=O)Nc1ccn(-c2c(F)cccc2F)n1 [Compound I-1-90] | 2.86
O=C(Nc1ccn(-c2nc(F)c(F)cc2F)n1)c1ccccc1C(F)(F)F [Compound I-1-162] | 2.78
O=C(Nc1ccn(-c2c(F)cccc2F)n1)c1sccc1C(F)F [Compound I-1-282] | 2.80
CC(C)n1nc([N+](=O)[O-])c(Cl)c1C(=O)Nc1ccn(-c2ncc(F)cc2F)n1 [Compound I-1-528] | 3.11
O=C(Nc1ccn(-c2ccccc2[N+](=O)[O-])n1)c1ccccc1C(F)(F)F [Compound I-1-415] | 2.63
O=C(Nc1ccn(-c2ccc(F)cn2)n1)c1ccccc1I [Compound I-1-599] | 2.78
O=C(Nc1ccn(-c2ccc(Cl)cc2Cl)n1)c1ccccc1Br [Compound I-1-199] | 3.44
CC(C)n1nc([N+](=O)[O-])c(Cl)c1C(=O)Nc1ccn(-c2c(F)cccc2F)n1 [Compound I-1-310] | 3.28

Results, then the compound that gave them:

log P | Structure (SMILES)
2.29 | O=C(Nc1ccn(-c2ncc(Cl)cc2Cl)n1)c1cccnc1Br [Compound I-1-431]
3.02 | O=C(Nc1ccn(-c2cccc(F)c2F)n1)c1ccccc1C(F)(F)F [Compound I-1-64]
3.64 | O=C(c1cccnc1Cl)N(C(=O)c1cccnc1Cl)c1nn(-c2ccccc2Br)nc1Cl [Compound I-2-23]
2.84 | Cc1nn(C(F)F)c(C(=O)Nc2ccn(-c3ncc(F)cc3F)n2)c1Cl [Compound I-1-525]
2.38 | N#Cc1ccccc1-n1ccc(NC(=O)c2ccccc2Cl)n1 [Compound I-1-8]
1.94 | O=C(Nc1ccn(-c2ncc(F)cn2)n1)c1ccccc1Br [Compound I-1-603]
2.73 | N#Cc1cc(F)ccc1-n1ccc(NC(=O)c2ccsc2I)n1 [Compound I-1-633]
2.85 | Cc1nc(-n2ccc(NC(=O)c3ccccc3C(F)(F)F)n2)c(F)cc1F [Compound I-1-439]
2.72 | O=C(Nc1ccn(-c2c(F)cccc2F)n1)c1c(F)cccc1Br [Compound I-1-613]
1.47 | O=C(Nc1ccn(-c2ncc(F)cc2F)n1)c1ccccc1-n1cncn1 [Compound I-1-150]
2.70 | O=C(Nc1ccn(-c2ncc(F)cc2F)n1)c1c(Cl)cccc1C(F)(F)F [Compound I-1-638]
2.03 | Cc1nn(C)c(C(=O)Nc2ccn(-c3ncc(F)cc3F)n2)c1[N+](=O)[O-] [Compound I-1-447]
2.20 | O=C(Nc1ccn(-c2ncc(F)cc2F)n1)c1nccnc1C(F)(F)F [Compound I-1-501]
2.22 | Cn1cc(C(=O)Nc2cnn(-c3c(F)cccc3F)n2)c(C(F)F)n1 [Compound I-2-78]
2.76 | Cc1onc(C(=O)Nc2ccn(-c3c(F)cccc3F)n2)c1C [Compound I-1-297]
1.71 | Cc1nn(C)cc1C(=O)Nc1ccn(-c2c(F)cccc2F)n1 [Compound I-1-107]
1.29 | CCc1ncccc1C(=O)Nc1ccn(-c2ncc(F)cc2F)n1 [Compound I-1-490]
2.34 | Cc1nn(C)c(C(=O)Nc2ccn(-c3c(F)cccc3F)n2)c1C(F)F [Compound I-1-294]
2.53 | O=C(Nc1ccn(-c2c(F)cccc2F)n1)C1=C(C(F)F)OCCS1 [Compound I-1-611]
1.66 | O=C(Nc1cnn(-c2ncccc2Cl)n1)c1cccnc1Cl [Compound I-2-56]
1.44 | Cc1ncccc1C(=O)Nc1ccn(-c2ccccc2Cl)n1 [Compound I-1-41]
1.73 | O=C(Nc1ccn(-c2ncc(F)cn2)n1)c1cccnc1C(F)(F)F [Compound I-1-601]
2.33 | O=C(Nc1ccn(-c2ncccc2F)n1)c1cccnc1OC(F)(F)F [Compound I-1-577]
